From patent publication US20240285724A1, “METHODS AND COMPOSITIONS FOR TREATING OCULAR DISORDERS AND DISEASES” (ONL Therapeutics, Inc., priority 2021, published 2024)
Residues, ends and D or L forms follow the SMILES beside them.

Columns and labels:
[1] = Ocular tissue concentration of ONL1204 after intravitreal injection in rabbit eye (LC-MS/MS); settings: rabbit vitreous humor; single dose 0.1 mg/eye IVT, days 0 to 168
Experimental: Standards and blanks were vortex mixed. […] Two hundred (200) uL of water was added.
The samples were then vortex mixed for 5 minutes.
The samples were dried with nitrogen at 35° C.

[2] = tested on: retinal pigment epithelial cell death; assay: Sodium iodate (NaIO3) challenge study, lesion area by fluorescein angiography; assay type: in vivo; settings: rabbit
Experimental: The resulting area was then measured.

## CC[C@H](C)[C@H](NC(=O)[C@H](Cc1ccc(O)cc1)NC(=O)[C@H](CC(N)=O)NC(=O)[C@@H](NC(=O)[C@H](C)NC(=O)CNC(=O)[C@H](CC(C)C)NC(=O)[C@H](Cc1ccc(O)cc1)NC(=O)[C@@H](NC(=O)[C@H](Cc1cnc[nH]1)NC(=O)[C@@H](N)Cc1cnc[nH]1)[C@@H](C)CC)C(C)C)C(=O)N[C@@H](Cc1ccc(O)cc1)C(N)=O [ONL1204] (H-HHIYLGAVNYIY-NH2)
[1]
  t1/2 (half-life in the vitreous): 279.8 days
[2]; 25 ug per eye IVT on Day 0, NaIO3 challenge Day 4
  Lesion size vs negative control: significantly lower than negative control
[2]; 100 ug per eye IVT on Day 0, NaIO3 challenge Day 4
  Lesion size vs negative control: significantly lower than negative control
[2]; 100 ug per eye IVT on Day 0, NaIO3 challenge Day 14
  Lesion size vs negative control: significantly smaller lesion size then both negative controls and those treated with 25 ug
[2]; 100 ug per eye IVT on Day 0, NaIO3 challenge Day 28
  Lesion size vs negative control: significantly smaller lesion size then both negative control animals and those treated with 25 ug
